{"source": "patent US20240307350A1", "about": "“5-METHOXY-N,N-DIMETHYLTRYPTAMINE (5-MEO-DMT) FOR TREATING DEPRESSION” (GH RESEARCH IRELAND LIMITED, priority 2019, published 2024)", "test_system": "patients with treatment-resistant major depressive disorder", "assay": "Clinical trial in treatment-resistant major depressive disorder: intensity of the psychedelic effects (MEQ30, ASC, PPEQ)", "type": "in vivo, human", "details": "for ASC Oceanic Boundlessness (0-2700) / MEQ30 Ineffability (0 to 5) / MEQ30 Mystical (0 to 5) / MEQ30 Positive Mood (0 to 5) / MEQ30 Total Score Average (0 to 5) / MEQ30 Transcendence Time/Space (0 to 5) / PPEQ Intensity (0-100) / PPEQ Loss of Control (0-100) / PPEQ Profoundness (0-100) / PPEQ Total Score (0-100) / PPEQ PPE achieved / MEQ30 PPE achieved / ASC PPE achieved: 12 mg inhaled; for PPEQ PPE achieved: PPEQ Total Score of at least 75; for MEQ30 PPE achieved: at least 60% of the maximum possible score in each of the four subscales; for ASC PPE achieved: at least 60% of the maximum possible score of Oceanic Boundlessness", "text": "The occurrence of a “peak psychedelic experience” in a patient can be identified through achievement of at least 60% of the maximum possible score in each of the four subscales (mystical, positive mood, transcendence of time and space, and ineffability) of the 30-item revised Mystical Experience Questionnaire (MEQ30) (as described in Barrett F S, J Psychopharmacol. 2015; 29(11):1182-90; Score items shown in Example 4).\nThe occurrence of a “peak psychedelic experience” in a patient can also be identified through achievement of at least 60% of the maximum possible score of the Oceanic Boundlessness (OBN) dimension of the Altered States of Consciousness (ASC) questionnaire (as described in Roseman L et al., Front Pharmacol. 2018; 8:974).\nThe occurrence of a “peak psychedelic experience” in a patient can also be identified through achievement of a score of at least 75 in the Peak Psychedelic Experience Questionnaire (PPEQ) Total Score, which averages answers scored by the patient from 0 to 100 for the following three questions: 1. How intense was the experience; 2. To what extent did you lose control; 3. How profound (i.e. deep and significant) was the experience?\nA clinical trial was performed in which 5-MeO-DMT free base (purity not less than 99%) was administered to patients with treatment-resistant major depressive disorder (TRD). The objectives of the study were to assess the safety and tolerability, the dose-related psychedelic effects and the effects on various measures of depression of single-day dosing of 5-MeO-DMT. The trial was reviewed and approved by the relevant national competent authority and local medical ethics committee. Patients recruited into the trial had to meet the Diagnostic and Statistical Manual of Mental Disorders-Fifth Edition (DSM-5) diagnostic criteria for single-episode or recurrent major depressive disorder and had to be treatment-resistant, both aspects as evaluated by a psychiatrist or registered psychologist. Patients who were using any psychoactive medication or substance (such as anti-depressive medication) had to discontinue such medication or substance and had to observe a wash-out period before the 5-MeO-DMT administration. On the administration day, a single dose of 12 mg 5-MeO-DMT was administered to the patients via a single inhalation as described in Example 1A. Patients were closely monitored for 3.5 hours after administration, with additional follow-up visits 1 day and 7 days after dosing. Various safety related measures (e.g., adverse event reporting, safety laboratory analyses, vital signs, electrocardiogram (ECG), Clinician Administered Dissociative States Scale (CADSS), Psychomotor Vigilance Test (PVT), Digit Symbol Substitution Test (DSST)), measures of the intensity of the psychedelic effects (e.g., Peak Psychedelic Experience Questionnaire (PPEQ), Altered States of Consciousness (ASC) Questionnaire, Mystical Experience Questionnaire (MEQ30), subjective description of the psychedelic experience), measures of depression severity (Montgomery-Åsberg Depression Rating Scale (MADRS), Patient's Global Impression of Severity scale (PGI-S), Patient's Global Impression of Improvement scale (PGI-I)), and additional psychological measures (e.g., Columbia-Suicide Severity Rating Scale (C-SSRS), Brief Psychiatric Rating Scale (BPRS)) were recorded at different time points. Psychological support via a psychologist and/or psychiatrist was available to the patients throughout the study, but no specific psychotherapy was applied, and no additional psychoactive medication was provided.\nThe score for each individual subscale is computed by calculating the average score (from the scale of 0 to 5) for the phenomena belonging to the subscale as listed below.\nThe MEQ30-total score is computed by taking the average response to all phenomena. […]", "data": [{"smiles": "COc1ccc2[nH]cc(CCN(C)C)c2c1", "note": "[5-MeO-DMT, 5-methoxy-N,N-dimethyltryptamine]", "values": [{"measurement": "ASC Oceanic Boundlessness (0-2700)", "setting": "Patient 1", "result": 1696}, {"measurement": "MEQ30 Ineffability (0 to 5)", "setting": "Patient 1", "result": 4.7}, {"measurement": "MEQ30 Mystical (0 to 5)", "setting": "Patient 1", "result": 3.5}, {"measurement": "MEQ30 Positive Mood (0 to 5)", "setting": "Patient 1", "result": 4.5}, {"measurement": "MEQ30 Total Score Average (0 to 5)", "setting": "Patient 1", "result": 3.8}, {"measurement": "MEQ30 Transcendence Time/Space (0 to 5)", "setting": "Patient 1", "result": 3.7}, {"measurement": "PPEQ Intensity (0-100)", "setting": "Patient 1", "result": 94}, {"measurement": "PPEQ Loss of Control (0-100)", "setting": "Patient 1", "result": 45}, {"measurement": "PPEQ Profoundness (0-100)", "setting": "Patient 1", "result": 87}, {"measurement": "PPEQ Total Score (0-100)", "setting": "Patient 1", "result": 75.3}, {"measurement": "PPEQ PPE achieved", "setting": "Patient 1", "result": "Yes"}, {"measurement": "MEQ30 PPE achieved", "setting": "Patient 1", "result": "Yes"}, {"measurement": "ASC PPE achieved", "setting": "Patient 1", "result": "Yes"}, {"measurement": "ASC Oceanic Boundlessness (0-2700)", "setting": "Patient 2", "result": 1297}, {"measurement": "MEQ30 Ineffability (0 to 5)", "setting": "Patient 2", "result": 3.3}, {"measurement": "MEQ30 Mystical (0 to 5)", "setting": "Patient 2", "result": 3.1}, {"measurement": "MEQ30 Positive Mood (0 to 5)", "setting": "Patient 2", "result": 4.0}, {"measurement": "MEQ30 Total Score Average (0 to 5)", "setting": "Patient 2", "result": 3.4}, {"measurement": "MEQ30 Transcendence Time/Space (0 to 5)", "setting": "Patient 2", "result": 3.5}, {"measurement": "PPEQ Intensity (0-100)", "setting": "Patient 2", "result": 100}, {"measurement": "PPEQ Loss of Control (0-100)", "setting": "Patient 2", "result": 58}, {"measurement": "PPEQ Profoundness (0-100)", "setting": "Patient 2", "result": 80}, {"measurement": "PPEQ Total Score (0-100)", "setting": "Patient 2", "result": 79.3}, {"measurement": "PPEQ PPE achieved", "setting": "Patient 2", "result": "Yes"}, {"measurement": "MEQ30 PPE achieved", "setting": "Patient 2", "result": "Yes"}, {"measurement": "ASC PPE achieved", "setting": "Patient 2", "result": "No"}, {"measurement": "duration of the psychedelic experience as judged by an external observer", "setting": "patient 1, single dose of 12 mg via inhalation", "result": 16, "unit": "min"}, {"measurement": "duration of the psychedelic experience as judged by an external observer", "setting": "patient 2, single dose of 12 mg via inhalation", "result": 40, "unit": "min"}, {"measurement": "first psychedelic symptoms after the inhalation (onset)", "setting": "single dose of 12 mg via inhalation, both patients", "result": "within a few seconds"}]}]}
